Assay type in all cases: functional
The test system of assay [1] is Staphylococcus aureus. Briefly: Antibacterial activity against methicillin-resistant Staphylococcus aureus USF658 by agar disk diffusion method. For orientation: In agar diffusion tests the substance spreads into inoculated agar from a disc or well.
In assay [2] the test system is Staphylococcus aureus. Briefly: Antibacterial activity against methicillin-resistant Staphylococcus aureus USF657 by agar disk diffusion method.
The subject of assay [3] is Staphylococcus aureus. In words: Antibacterial activity against methicillin-resistant Staphylococcus aureus USF652 by agar disk diffusion method.
The test system of assay [4] is Staphylococcus aureus. In words: Antibacterial activity against methicillin-resistant Staphylococcus aureus USF659 by agar disk diffusion method.
Assay [5] deals with Staphylococcus aureus. In words: Antibacterial activity against methicillin-resistant Staphylococcus aureus USF656 by agar disk diffusion method.
In assay [6] the test system is Staphylococcus aureus. Briefly: Antibacterial activity against methicillin-resistant Staphylococcus aureus USF653 by agar disk diffusion method.
The test system of assay [7] is Staphylococcus aureus. Briefly: Antibacterial activity against methicillin-resistant Staphylococcus aureus USF654 by agar disk diffusion method.
Assay [8] has as its system Staphylococcus aureus. In words: Antibacterial activity against methicillin-resistant Staphylococcus aureus USF655 by agar disk diffusion method.
Assay [9] relates to Staphylococcus aureus. Briefly: Antibacterial activity against Staphylococcus aureus 849 ATCC 25923 by agar disk diffusion method.
In assay [10] the test system is Staphylococcus aureus. In words: Antibacterial activity against methicillin-resistant Staphylococcus aureus USF920 ATCC 33591 by agar disk diffusion method.
The subject of assay [11] is Staphylococcus aureus. In words: Antibacterial activity against methicillin-resistant Staphylococcus aureus USF919 ATCC 43300 by agar disk diffusion method.
The next assay relates to Heyndrickxia coagulans. In words: Antibacterial activity against Bacillus coagulans by agar disk diffusion method.
Assay [12] relates to Bacillus subtilis. In words: Antibacterial activity against Bacillus globigii by agar disk diffusion method.
A further assay has as its system Priestia megaterium. Briefly: Antibacterial activity against Bacillus megaterium by agar disk diffusion method.
For another assay, the system named is Bacillus thuringiensis. In words: Antibacterial activity against Bacillus thuringiensis by agar disk diffusion method.
A further assay relates to Bacillus cereus. In words: Antibacterial activity against Bacillus cereus by agar disk diffusion method.
Assay [13] has as its system Bacillus subtilis. In words: Antibacterial activity against Bacillus subtilis by agar disk diffusion method.
In assay [14] the test system is Staphylococcus aureus. Briefly: Antibacterial activity against methicillin-resistant Staphylococcus aureus.
The subject of assay [15] is Staphylococcus aureus. Briefly: Antibacterial activity against Staphylococcus aureus.

From ChEMBL document CHEMBL1146116, “N-thiolated 2-oxazolidinones: a new family of antibacterial agents for methicillin-resistant Staphylococcus aureus and Bacillus anthracis” (2006) come the findings set out here.

≈ marks a conversion by molar mass, not a printed value.

Regarding `CO[C@H]1C(=O)N(SC)[C@H]1c1ccccc1`, the inhibition zone (IZ) in the assay with Staphylococcus aureus [1] worked out at 26 mm; with Staphylococcus aureus [2] it was 27 mm; in the assay with Staphylococcus aureus [3], 30 mm; in the assay on Staphylococcus aureus [4], 24 mm; in the assay with Staphylococcus aureus [5], 28 mm; in the assay with Staphylococcus aureus [6] it was 30 mm. The inhibition zone (IZ) in the assay on Staphylococcus aureus [7] came out at 26 mm; in the assay with Staphylococcus aureus [8] it was 25 mm; in the assay on Staphylococcus aureus [9], 25 mm.

Consider `CSN1CC(CCl)OC1=O` (stereo not given), for which the inhibition zone (IZ) turned out to be 18 mm in the assay with Staphylococcus aureus [1]; 21 mm with Staphylococcus aureus [2]; 16 mm in the assay with Staphylococcus aureus [3]; 16 mm in the assay on Staphylococcus aureus [10]; 20 mm in the assay with Staphylococcus aureus [11]; 19 mm with Staphylococcus aureus [4]. Further, the inhibition zone (IZ) is 22 mm in the assay on Staphylococcus aureus [5]; 20 mm with Staphylococcus aureus [6]; 20 mm in the assay on Staphylococcus aureus [7]; 20 mm with Staphylococcus aureus [8]; 21 mm with Staphylococcus aureus [9].

With `CSN1C(=O)OC[C@H]1C(C)C`, the inhibition zone (IZ) in the assay on Staphylococcus aureus [1] is 19 mm; in the assay on Heyndrickxia coagulans it was 0 mm; with Staphylococcus aureus [2], 19 mm; in the assay with Staphylococcus aureus [3], 12 mm; in the assay with Staphylococcus aureus [10] it was 15 mm; in the assay with Staphylococcus aureus [11], 13 mm. Also, the inhibition zone (IZ) in the assay with Staphylococcus aureus [4] was determined as 22 mm; in the assay on Bacillus subtilis [12] it was 17 mm; in the assay with Priestia megaterium, 10 mm; in the assay on Bacillus thuringiensis, 0 mm; in the assay on Staphylococcus aureus [5], 20 mm; with Staphylococcus aureus [6], 25 mm. In addition, the inhibition zone (IZ) with Staphylococcus aureus [7] was found to be 20 mm; with Bacillus cereus it was 15 mm; with Staphylococcus aureus [8], 18 mm; in the assay with Bacillus subtilis [13], 19 mm; in the assay with Staphylococcus aureus [9], 21 mm.

Regarding `CSN1C(=O)OC[C@@H]1c1ccccc1`, the inhibition zone (IZ) with Staphylococcus aureus [1] is 29 mm; with Heyndrickxia coagulans, 17 mm; with Staphylococcus aureus [2], 29 mm; in the assay with Staphylococcus aureus [3], 30 mm; in the assay with Staphylococcus aureus [10] it was 28 mm; in the assay with Staphylococcus aureus [11], 30 mm. For the same compound, the inhibition zone (IZ) with Staphylococcus aureus [4] turned out to be 26 mm; in the assay with Bacillus subtilis [12] it was 15 mm; in the assay with Priestia megaterium it was 18 mm; in the assay on Bacillus thuringiensis, 17 mm; with Staphylococcus aureus [5] it was 31 mm; with Staphylococcus aureus [6] it was 31 mm. The inhibition zone (IZ) with Staphylococcus aureus [7] amounted to 29 mm; with Bacillus cereus, 24 mm; in the assay with Staphylococcus aureus [8] it was 29 mm; in the assay on Bacillus subtilis [13], 19 mm; with Staphylococcus aureus [9], 30 mm.

`CSN1C(=O)OC[C@H]1c1ccccc1`: the inhibition zone (IZ) in the assay with Staphylococcus aureus [1] stood at 27 mm; in the assay on Heyndrickxia coagulans, 17 mm; with Staphylococcus aureus [2] it was 27 mm; with Staphylococcus aureus [3], 30 mm; in the assay on Staphylococcus aureus [10], 28 mm; in the assay with Staphylococcus aureus [11], 28 mm. In addition, the inhibition zone (IZ) in the assay on Staphylococcus aureus [4] was 26 mm; with Bacillus subtilis [12], 17 mm; in the assay on Priestia megaterium, 20 mm; with Bacillus thuringiensis it was 15 mm; in the assay on Staphylococcus aureus [5], 28 mm; in the assay with Staphylococcus aureus [6], 30 mm. The inhibition zone (IZ) amounted to 26 mm in the assay with Staphylococcus aureus [7]; 23 mm in the assay with Bacillus cereus; 28 mm in the assay on Staphylococcus aureus [8]; 19 mm in the assay on Bacillus subtilis [13]; 29 mm in the assay with Staphylococcus aureus [9]. Further, the MIC against Staphylococcus aureus [14] and in the assay on Staphylococcus aureus [15] was 8 µg/mL (≈ 38.2 µM) each time.

Turning to `CSN1C(=O)O[C@@H](CN=[N+]=[N-])[C@@H]1c1ccccc1`, the inhibition zone (IZ) in the assay with Staphylococcus aureus [1] came to 31 mm; in the assay on Staphylococcus aureus [2], 30 mm; with Staphylococcus aureus [3] it was 30 mm; in the assay on Staphylococcus aureus [10], 32 mm; in the assay with Staphylococcus aureus [11], 32 mm; in the assay on Staphylococcus aureus [4], 28 mm. The inhibition zone (IZ) was 31 mm with Staphylococcus aureus [5]; 32 mm in the assay on Staphylococcus aureus [6]; 30 mm with Staphylococcus aureus [7]; 30 mm in the assay on Staphylococcus aureus [8]; 31 mm in the assay with Staphylococcus aureus [9].

As for `CSN1C(=O)OC[C@@H]1C(C)C`, the inhibition zone (IZ) in the assay with Staphylococcus aureus [1] was 16 mm; with Heyndrickxia coagulans it was 17 mm; in the assay with Staphylococcus aureus [2] it was 22 mm; with Staphylococcus aureus [3] it was 19 mm; in the assay on Staphylococcus aureus [10], 18 mm; with Staphylococcus aureus [11] it was 21 mm. In addition, the inhibition zone (IZ) was found to be 22 mm in the assay on Staphylococcus aureus [4]; 15 mm in the assay on Bacillus subtilis [12]; 18 mm with Priestia megaterium; 16 mm with Bacillus thuringiensis; 22 mm in the assay with Staphylococcus aureus [5]; 27 mm in the assay on Staphylococcus aureus [6]. The inhibition zone (IZ) in the assay with Staphylococcus aureus [7] came out at 23 mm; in the assay with Bacillus cereus, 22 mm; in the assay with Staphylococcus aureus [8], 22 mm; in the assay with Bacillus subtilis [13], 17 mm; with Staphylococcus aureus [9], 20 mm. In addition, the MIC in the assay with Staphylococcus aureus [14] and against Staphylococcus aureus [15] was 16 µg/mL (≈ 91.3 µM) each time.

For `COC(=O)[C@@H]1OC(=O)N(SC)[C@H]1c1ccccc1`, the inhibition zone (IZ) in the assay with Staphylococcus aureus [1] was 14 mm; in the assay on Staphylococcus aureus [2], 12 mm; with Staphylococcus aureus [3] it was 12 mm; in the assay with Staphylococcus aureus [10], 0 mm; in the assay with Staphylococcus aureus [11], 11 mm; with Staphylococcus aureus [4], 16 mm. The inhibition zone (IZ) in the assay with Staphylococcus aureus [5] is 15 mm; in the assay on Staphylococcus aureus [6] it was 19 mm; in the assay on Staphylococcus aureus [7] it was 14 mm; in the assay on Staphylococcus aureus [8], 14 mm; in the assay on Staphylococcus aureus [9], 16 mm.

`CSN1C(=O)OCC1Cc1ccccc1` (stereo not given): the inhibition zone (IZ) in the assay on Staphylococcus aureus [1] worked out at 17 mm; in the assay on Staphylococcus aureus [2] it was 19 mm; with Staphylococcus aureus [3] it was 17 mm; in the assay with Staphylococcus aureus [10] it was 19 mm; in the assay with Staphylococcus aureus [11] it was 19 mm; in the assay with Staphylococcus aureus [4], 19 mm. Further, the inhibition zone (IZ) in the assay on Staphylococcus aureus [5] came to 19 mm; in the assay on Staphylococcus aureus [6] it was 20 mm; in the assay on Staphylococcus aureus [7], 18 mm; in the assay with Staphylococcus aureus [8] it was 17 mm; in the assay on Staphylococcus aureus [9], 17 mm.

Turning to `CCC(C)SN1CC(CCl)OC1=O` (stereo not given), the inhibition zone (IZ) with Staphylococcus aureus [1] was determined as 21 mm; with Staphylococcus aureus [2] it was 22 mm; in the assay on Staphylococcus aureus [3], 19 mm; with Staphylococcus aureus [10], 19 mm; with Staphylococcus aureus [11] it was 19 mm; in the assay with Staphylococcus aureus [4], 20 mm. Also, the inhibition zone (IZ) is 20 mm in the assay with Staphylococcus aureus [5]; 20 mm in the assay with Staphylococcus aureus [6]; 22 mm with Staphylococcus aureus [7]; 22 mm with Staphylococcus aureus [8]; 19 mm with Staphylococcus aureus [9].

On to `CC1(C)S[C@@H]2[C@H](NC(=O)Cc3ccccc3)C(=O)N2[C@H]1C(=O)O` [PENICILLIN G], for which the inhibition zone (IZ) in the assay with Staphylococcus aureus [1] turned out to be 19 mm; in the assay on Staphylococcus aureus [2] it was 12 mm; in the assay on Staphylococcus aureus [3], 8 mm; in the assay on Staphylococcus aureus [4], 16 mm; in the assay with Staphylococcus aureus [5] it was 12 mm; with Staphylococcus aureus [6], 15 mm. Further, the inhibition zone (IZ) in the assay on Staphylococcus aureus [7] is 10 mm; in the assay on Staphylococcus aureus [8] it was 14 mm; with Staphylococcus aureus [9], 33 mm.
